Measurements reported in ChEMBL document CHEMBL5653631, “A Potent and Selective ULK1 Inhibitor Suppresses Autophagy and Sensitizes Cancer Cells to Nutrient Stress” (iScience, 2018).

Key:
[1] = target: T1, Calcium/calmodulin-dependent protein kinase type IV (Homo sapiens) (UniProt Q16566); experiment: Inhibition of human recombinant CaMK4 at 40 nM in presence of ATP by radiometric assay relative to control
T1 sequence (whole entry): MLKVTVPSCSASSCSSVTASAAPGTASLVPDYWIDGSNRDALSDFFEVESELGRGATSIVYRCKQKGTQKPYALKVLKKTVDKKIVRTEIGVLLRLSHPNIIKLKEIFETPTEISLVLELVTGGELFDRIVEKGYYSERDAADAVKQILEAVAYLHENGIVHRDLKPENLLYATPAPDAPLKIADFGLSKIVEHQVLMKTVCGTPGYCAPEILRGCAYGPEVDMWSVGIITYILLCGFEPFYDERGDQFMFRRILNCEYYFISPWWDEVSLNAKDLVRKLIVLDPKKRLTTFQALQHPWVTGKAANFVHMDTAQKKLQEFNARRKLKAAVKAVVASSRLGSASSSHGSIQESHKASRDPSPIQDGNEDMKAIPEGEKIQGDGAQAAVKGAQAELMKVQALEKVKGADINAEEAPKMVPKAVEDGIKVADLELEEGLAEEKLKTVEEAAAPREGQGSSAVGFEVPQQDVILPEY

[2] = target: Serine/threonine-protein kinase MAK (Homo sapiens) (UniProt P20794); experiment: Inhibition of human recombinant MAK at 500 nM related to control ULK1
[3] = target: Ribosomal protein S6 kinase alpha-6 (Homo sapiens) (UniProt Q9UK32); experiment: Inhibition of human recombinant RSK4 at 500 nM related to control ULK1
[4] = target: Transcription initiation factor TFIID subunit 1-like (Homo sapiens) (UniProt Q8IZX4); experiment: Inhibition of human recombinant TAF1L at 15 nM in presence of ATP by radiometric assay relative to control
[5] = target: Ribosomal protein S6 kinase alpha-2 (Homo sapiens) (UniProt Q15349); experiment: Inhibition of human recombinant RSK3 at 15 nM in presence of ATP by radiometric assay relative to control
[6] = target: T2, Dual specificity protein kinase TTK (Homo sapiens) (UniProt P33981); experiment: Inhibition of human recombinant TTK at 15 nM in presence of ATP by radiometric assay relative to control
T2 sequence (whole entry): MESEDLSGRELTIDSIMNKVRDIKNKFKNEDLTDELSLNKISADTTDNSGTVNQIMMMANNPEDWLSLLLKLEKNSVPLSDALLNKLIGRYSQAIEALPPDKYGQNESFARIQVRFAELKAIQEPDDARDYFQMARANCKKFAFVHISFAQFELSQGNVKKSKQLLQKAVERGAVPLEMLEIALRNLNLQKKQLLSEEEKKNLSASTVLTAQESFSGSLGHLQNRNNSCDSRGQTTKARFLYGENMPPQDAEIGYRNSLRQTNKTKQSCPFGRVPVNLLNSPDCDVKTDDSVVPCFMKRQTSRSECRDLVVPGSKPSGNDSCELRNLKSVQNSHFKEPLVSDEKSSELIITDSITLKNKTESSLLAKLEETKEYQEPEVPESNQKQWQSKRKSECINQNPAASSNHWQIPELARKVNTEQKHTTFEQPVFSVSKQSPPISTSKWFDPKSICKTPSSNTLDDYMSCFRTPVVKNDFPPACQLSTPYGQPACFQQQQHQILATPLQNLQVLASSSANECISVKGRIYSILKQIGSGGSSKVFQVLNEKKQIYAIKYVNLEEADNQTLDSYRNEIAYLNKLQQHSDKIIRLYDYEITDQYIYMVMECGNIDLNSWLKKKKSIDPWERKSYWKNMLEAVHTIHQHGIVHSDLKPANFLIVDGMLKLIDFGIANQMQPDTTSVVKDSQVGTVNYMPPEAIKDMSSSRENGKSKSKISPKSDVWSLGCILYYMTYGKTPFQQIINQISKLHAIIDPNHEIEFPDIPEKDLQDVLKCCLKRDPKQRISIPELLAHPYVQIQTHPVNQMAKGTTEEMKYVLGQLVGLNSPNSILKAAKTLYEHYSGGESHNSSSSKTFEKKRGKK

[7] = target: Myosin light chain kinase, smooth muscle (Homo sapiens) (UniProt Q15746); experiment: Inhibition of human recombinant smMLCK at 15 nM in presence of ATP by radiometric assay relative to control
[8] = target: T3, NUAK family SNF1-like kinase 1 (Homo sapiens) (UniProt O60285); experiment: Inhibition of human recombinant NuaK1 at 15 nM related to control ULK1
T3 sequence (whole entry): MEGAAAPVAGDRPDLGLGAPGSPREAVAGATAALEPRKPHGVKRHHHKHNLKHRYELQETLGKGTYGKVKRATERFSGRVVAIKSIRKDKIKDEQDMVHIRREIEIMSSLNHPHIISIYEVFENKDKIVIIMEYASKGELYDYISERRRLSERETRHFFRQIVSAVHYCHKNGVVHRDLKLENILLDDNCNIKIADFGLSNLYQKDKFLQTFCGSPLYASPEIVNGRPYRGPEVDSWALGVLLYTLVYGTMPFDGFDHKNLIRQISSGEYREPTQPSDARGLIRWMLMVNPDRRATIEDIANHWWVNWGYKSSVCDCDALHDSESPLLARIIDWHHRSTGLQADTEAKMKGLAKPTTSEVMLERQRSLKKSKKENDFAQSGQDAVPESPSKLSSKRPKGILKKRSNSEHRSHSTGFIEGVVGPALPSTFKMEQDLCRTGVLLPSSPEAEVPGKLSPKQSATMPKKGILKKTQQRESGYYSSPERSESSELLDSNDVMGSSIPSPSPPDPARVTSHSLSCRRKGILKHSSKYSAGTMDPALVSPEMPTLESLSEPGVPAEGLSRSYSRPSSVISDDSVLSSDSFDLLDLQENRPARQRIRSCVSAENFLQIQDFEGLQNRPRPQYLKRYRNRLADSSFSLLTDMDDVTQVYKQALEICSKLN

[9] = target: T4, TGF-beta receptor type-1 (Homo sapiens) (UniProt P36897); experiment: Inhibition of human recombinant TGFbR1 at 15 nM related to control ULK1
T4 sequence (whole entry): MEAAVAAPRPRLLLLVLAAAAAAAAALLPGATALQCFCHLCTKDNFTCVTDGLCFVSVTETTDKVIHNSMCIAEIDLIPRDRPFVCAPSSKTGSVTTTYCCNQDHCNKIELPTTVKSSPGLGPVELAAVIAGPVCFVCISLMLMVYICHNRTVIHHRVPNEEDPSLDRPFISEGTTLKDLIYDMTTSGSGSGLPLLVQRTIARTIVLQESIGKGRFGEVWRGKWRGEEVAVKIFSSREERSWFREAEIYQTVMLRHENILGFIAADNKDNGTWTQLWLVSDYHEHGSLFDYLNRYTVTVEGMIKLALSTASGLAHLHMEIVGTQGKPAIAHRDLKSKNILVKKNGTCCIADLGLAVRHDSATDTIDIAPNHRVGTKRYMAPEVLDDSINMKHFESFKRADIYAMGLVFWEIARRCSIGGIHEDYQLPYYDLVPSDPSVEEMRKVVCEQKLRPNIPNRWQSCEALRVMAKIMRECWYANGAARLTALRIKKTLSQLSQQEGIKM

Ribosomal protein S6 kinase alpha-6 (Homo sapiens), sequence (Q9UK32 whole entry): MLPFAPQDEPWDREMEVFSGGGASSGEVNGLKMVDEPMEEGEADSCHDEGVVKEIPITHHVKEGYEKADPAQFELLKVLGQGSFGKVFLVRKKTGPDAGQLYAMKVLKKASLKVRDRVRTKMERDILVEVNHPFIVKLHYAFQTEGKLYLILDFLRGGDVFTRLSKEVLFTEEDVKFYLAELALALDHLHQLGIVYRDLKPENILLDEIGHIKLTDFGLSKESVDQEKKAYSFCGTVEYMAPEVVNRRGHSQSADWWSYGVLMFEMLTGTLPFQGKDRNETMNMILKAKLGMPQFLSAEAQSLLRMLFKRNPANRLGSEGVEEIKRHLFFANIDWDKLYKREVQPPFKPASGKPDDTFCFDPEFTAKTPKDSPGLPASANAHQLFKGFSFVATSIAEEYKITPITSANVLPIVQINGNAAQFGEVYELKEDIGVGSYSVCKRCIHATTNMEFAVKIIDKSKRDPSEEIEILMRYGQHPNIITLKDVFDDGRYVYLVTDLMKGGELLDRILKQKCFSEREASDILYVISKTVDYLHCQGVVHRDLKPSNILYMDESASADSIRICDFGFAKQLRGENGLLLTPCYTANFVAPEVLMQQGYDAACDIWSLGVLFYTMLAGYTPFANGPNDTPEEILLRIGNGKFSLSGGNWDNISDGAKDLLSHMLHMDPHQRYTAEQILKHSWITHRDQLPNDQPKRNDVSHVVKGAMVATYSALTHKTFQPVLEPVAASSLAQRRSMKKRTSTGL
Ribosomal protein S6 kinase alpha-2 (Homo sapiens), sequence (Q15349 whole entry): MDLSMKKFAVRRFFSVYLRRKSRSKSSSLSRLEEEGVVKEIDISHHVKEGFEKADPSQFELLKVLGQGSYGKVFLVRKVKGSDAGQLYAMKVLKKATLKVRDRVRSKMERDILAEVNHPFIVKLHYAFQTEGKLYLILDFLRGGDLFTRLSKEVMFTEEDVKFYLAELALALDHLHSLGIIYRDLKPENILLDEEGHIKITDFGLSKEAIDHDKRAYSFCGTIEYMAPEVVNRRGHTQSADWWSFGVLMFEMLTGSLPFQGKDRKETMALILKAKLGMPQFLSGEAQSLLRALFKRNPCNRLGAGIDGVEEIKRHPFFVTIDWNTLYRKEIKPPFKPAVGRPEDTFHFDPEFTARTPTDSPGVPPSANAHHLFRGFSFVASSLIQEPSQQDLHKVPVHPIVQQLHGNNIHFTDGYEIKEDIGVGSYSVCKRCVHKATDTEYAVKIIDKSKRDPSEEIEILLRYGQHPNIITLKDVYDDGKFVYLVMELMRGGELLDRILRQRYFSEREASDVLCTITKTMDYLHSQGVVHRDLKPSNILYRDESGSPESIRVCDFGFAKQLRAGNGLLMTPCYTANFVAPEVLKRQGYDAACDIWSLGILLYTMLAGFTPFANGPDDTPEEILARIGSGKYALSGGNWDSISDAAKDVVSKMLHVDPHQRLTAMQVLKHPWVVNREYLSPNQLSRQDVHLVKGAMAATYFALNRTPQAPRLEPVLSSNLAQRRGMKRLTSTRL
Serine/threonine-protein kinase MAK (Homo sapiens), sequence (P20794 whole entry, looked up): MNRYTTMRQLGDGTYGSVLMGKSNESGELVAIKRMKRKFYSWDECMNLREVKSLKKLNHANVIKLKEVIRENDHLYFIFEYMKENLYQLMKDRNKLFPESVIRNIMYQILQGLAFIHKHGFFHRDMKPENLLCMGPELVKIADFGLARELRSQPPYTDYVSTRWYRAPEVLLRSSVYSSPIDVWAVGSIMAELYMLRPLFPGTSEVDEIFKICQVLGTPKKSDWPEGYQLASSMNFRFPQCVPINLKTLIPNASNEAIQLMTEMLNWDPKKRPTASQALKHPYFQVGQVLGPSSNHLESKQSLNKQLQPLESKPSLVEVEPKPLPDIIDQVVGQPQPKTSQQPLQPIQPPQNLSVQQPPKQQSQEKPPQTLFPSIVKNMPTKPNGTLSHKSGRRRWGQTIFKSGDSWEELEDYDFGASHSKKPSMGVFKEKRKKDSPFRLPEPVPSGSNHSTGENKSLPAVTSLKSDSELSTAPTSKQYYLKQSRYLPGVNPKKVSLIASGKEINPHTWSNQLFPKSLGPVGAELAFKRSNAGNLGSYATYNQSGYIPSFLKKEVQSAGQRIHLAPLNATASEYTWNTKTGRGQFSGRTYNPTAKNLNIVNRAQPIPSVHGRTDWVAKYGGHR
Myosin light chain kinase, smooth muscle (Homo sapiens), sequence (Q15746 whole entry): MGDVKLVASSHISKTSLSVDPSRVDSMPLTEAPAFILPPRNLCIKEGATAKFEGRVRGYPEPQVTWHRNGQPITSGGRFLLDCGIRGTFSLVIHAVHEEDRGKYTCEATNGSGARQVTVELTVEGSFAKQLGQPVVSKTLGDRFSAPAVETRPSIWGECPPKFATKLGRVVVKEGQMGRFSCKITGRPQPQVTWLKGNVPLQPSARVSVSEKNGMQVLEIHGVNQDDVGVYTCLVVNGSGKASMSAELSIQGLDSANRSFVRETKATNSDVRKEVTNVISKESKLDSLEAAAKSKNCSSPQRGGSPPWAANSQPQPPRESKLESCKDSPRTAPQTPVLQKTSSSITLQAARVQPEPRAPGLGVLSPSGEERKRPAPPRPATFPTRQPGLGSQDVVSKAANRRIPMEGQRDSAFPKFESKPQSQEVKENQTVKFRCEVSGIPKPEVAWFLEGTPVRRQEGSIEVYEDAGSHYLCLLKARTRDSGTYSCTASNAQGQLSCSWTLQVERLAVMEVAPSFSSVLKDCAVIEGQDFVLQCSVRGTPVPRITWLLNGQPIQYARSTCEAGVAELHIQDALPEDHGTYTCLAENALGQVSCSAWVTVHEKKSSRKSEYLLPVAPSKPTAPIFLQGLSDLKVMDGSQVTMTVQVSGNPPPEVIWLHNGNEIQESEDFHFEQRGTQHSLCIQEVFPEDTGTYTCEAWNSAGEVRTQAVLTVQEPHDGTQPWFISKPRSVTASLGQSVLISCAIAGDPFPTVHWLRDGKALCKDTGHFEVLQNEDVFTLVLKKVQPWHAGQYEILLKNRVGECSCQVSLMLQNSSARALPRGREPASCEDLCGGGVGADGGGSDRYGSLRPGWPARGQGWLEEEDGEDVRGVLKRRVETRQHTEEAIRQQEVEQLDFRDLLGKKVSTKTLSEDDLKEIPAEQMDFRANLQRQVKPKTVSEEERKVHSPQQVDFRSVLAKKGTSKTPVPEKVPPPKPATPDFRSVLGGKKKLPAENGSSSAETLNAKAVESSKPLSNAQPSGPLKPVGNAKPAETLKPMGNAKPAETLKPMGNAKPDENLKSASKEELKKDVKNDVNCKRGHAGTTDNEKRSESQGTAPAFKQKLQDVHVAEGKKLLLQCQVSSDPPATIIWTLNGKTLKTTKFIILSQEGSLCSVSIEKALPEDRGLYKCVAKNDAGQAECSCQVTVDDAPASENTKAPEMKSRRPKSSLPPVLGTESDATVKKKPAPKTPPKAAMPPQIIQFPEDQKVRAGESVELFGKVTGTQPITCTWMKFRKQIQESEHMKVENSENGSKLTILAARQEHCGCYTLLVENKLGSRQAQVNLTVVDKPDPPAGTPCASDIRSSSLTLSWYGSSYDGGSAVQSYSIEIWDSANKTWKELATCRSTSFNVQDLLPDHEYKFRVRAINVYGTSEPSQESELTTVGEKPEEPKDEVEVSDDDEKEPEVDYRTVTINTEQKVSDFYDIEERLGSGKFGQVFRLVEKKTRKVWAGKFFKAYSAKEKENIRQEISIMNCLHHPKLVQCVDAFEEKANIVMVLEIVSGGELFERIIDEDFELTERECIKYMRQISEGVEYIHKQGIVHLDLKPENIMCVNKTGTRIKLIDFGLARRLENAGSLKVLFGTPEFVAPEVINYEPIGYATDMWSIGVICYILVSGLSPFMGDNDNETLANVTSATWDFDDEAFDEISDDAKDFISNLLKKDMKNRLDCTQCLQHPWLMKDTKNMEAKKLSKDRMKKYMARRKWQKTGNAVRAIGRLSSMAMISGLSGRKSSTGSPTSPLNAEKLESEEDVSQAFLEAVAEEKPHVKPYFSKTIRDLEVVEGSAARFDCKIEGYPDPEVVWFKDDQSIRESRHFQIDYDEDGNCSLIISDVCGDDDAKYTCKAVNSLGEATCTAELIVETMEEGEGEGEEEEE

O=C(N[C@@H](C1CC1)C(F)(F)F)c1cc(-c2cnn3cc(-c4ccc(F)cc4)cnc23)cs1
inhibition [1]: 0%

CNC(=O)c1ccccc1Oc1nc(Nc2cc(OC)c(OC)c(OC)c2)ncc1Br
fold change (FC) [2]: 0.49 | fold change (FC) [3]: 0.45

CC(C)[C@H](NC(=O)c1cc(-c2cnn3cc(-c4ccc(OCCN5CCCCC5)cc4)cnc23)cs1)C(F)(F)F
inhibition [4]: 43% | inhibition [5]: 3% | inhibition [6]: 22% | inhibition [7]: 0% | fold change (FC) [8]: 0.31 | fold change (FC) [9]: 0.05
